Measurements: patent publication US20040023884A1, “Biologically active peptides from functional domains of bactericidal/permeability-increasing protein and uses thereof” (priority 1993, published 2004)
Square brackets hold non-standard residues; d marks the D form. Ends that are not written are not given here. Peptide text beside a SMILES is read from it. 1Nal = N[C@@H](Cc1cccc2ccccc12)C(=O)O

B1: A6a: Asp-N fragment of rBPI23, residues 116-193 (protein)
chain: IKISGKWKAQKRFLKMSGNFDLSIEGMSISADLKLGSNPTSGKPTITCSSCSSHINSVHVHISKSKVGWLIQLFHKKI
B2: C1,C5: unresolved mixture of CNBr fragments of rBPI23, residues 1-56 and 112-170 (protein)
chain 1: MRENMARGPCNAPRWVSLMVLVAIGTAVTAAVNPGVVVRISQKGLDYASQQGTAAL
chain 2: SNANIKISGKWKAQKRFLKMSGNFDLSIEGMSISADLKLGSNPTSGKPTITCSSCSSHI
modifications: non-natural residues

Columns and labels:
[1] = tested on: rough mutant E. coli J5 bacteria; assay: Radial diffusion bactericidal assay, E. coli J5; format: cell-based; conditions: for pmol added to well to achieve a 30 mm^2 bactericidal zone, E. coli J5: radial diffusion, PROBIT analysis, E. coli J5 (rough)
Summary of the method: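 Log-phase bacteria, washed in 10 mM sodium phosphate pH 7.4, were seeded at 4×10^6 CFU/mL in underlayer agarose. BPI fragments (5 or 10 μL) went into 3 mm wells for 3 h at 37° C., then overlayer agarose was added. After overnight 37° C. incubation, clearing zones were measured by micrometer.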

[2] = 3H-heparin binding assay (affinity and capacity); conditions: for Heparin Capacity: heparin bound at saturation; for Kd: read-out: Heparin Affinity; for cpm ^3H-Heparin bound: 100 picomoles of each fragment per well, saturating 3H-heparin 20 μg/mL, mean of duplicate wells ± range
Summary of the method: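 Bound 3H-heparin was counted by liquid scintillation after 1 h incubation at 4 °C with fragments immobilised on PVDF-bottomed wells, then washing in blocking buffer. Signal was corrected for BSA-related background, and varying amounts of rBPI23 were used as positive control.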

E. coli 0113 LPS = assay: Limulus Amoebocyte Lysate (LAL) inhibition assay; format: biochemical; conditions: for LAL (relative difference): alanine variant relative to BPI.2
Method: BPI proteolytic fragments produced according to Example 1 were subjected to a Limulus Amoebocyte Lysate (LAL) inhibition assay to determine LPS binding properties of these fragments. Specifically, each of the fragments were mixed in Eppendorf tubes with a fixed concentration of E. coli 0113 LPS (4 ng/mL final concentration) and incubated at 37° C. for 3 hours with occasional shaking. Addition controls comprising rBPI23 at 0.05 μg/mL were also tested. Following incubation, 360 μL of Dulbecco's phosphate buffered saline (D-PBS; Grand Island Biological Co. (GIBCO), Long Island, N.Y.) were added per tube to obtain an LPS concentration of 200 pg/mL for the LAL assay. Each sample was then transferred into Immulon II strips (Dynatech, Chantilly, Va.) in volumes of 50 μl per well.
Limulus amoebocyte Lysate (Quantitative Chromogenic LAL kit, Whitaker Bioproducts, Inc., Walkersville, Md.) was added at 50 μL per well and the wells were incubated at room temperature for 25 minutes. Chromogenic substrate was then added at a volume of 100 μL per well and was well mixed. After incubation for 20 to 30 minutes at room temperature, the reaction was stopped with addition of 100 μL of 25% (v/v) acetic acid. Optical density at 405 nm was then measured in a multiplate reader (Model Vmax, […], Menlo Park, Calif.) with the results shown in FIG. 2 in terms of percent inhibition of LPS. In this Figure, the filled circle represents rBPI23; the open circle represents Asp-N fragment A3; the x represents Asp-N fragment A2, the filled square represents Asp-N fragment A4; the filled triangle represents Asp-N fragment A1A2; the open square represents Asp-N fragment A6a; the small open triangle represents CNBr fragment C3; and the small filled square represents CNBr fragment C1/C5.

[3] = tested on: E. coli 0111:B4 (smooth) bacteria; assay: Radial diffusion bactericidal assay, E. coli 0111:B4; format: cell-based; conditions: for pmol added to well to achieve a 30 mm^2 bactericidal zone, E. coli O111:B4: radial diffusion, PROBIT analysis, E. coli O111:B4 (smooth)
Candida albicans = format: cell-based
Staphylococcus aureus = assay: Radial diffusion bactericidal assay, Staphylococcus aureus; format: cell-based; conditions: S. aureus; for pmol added to well to achieve a 30 mm^2 bactericidal zone, S. aureus: radial diffusion, PROBIT analysis
C. albicans = assay: Radial diffusion fungicidal assay, Candida albicans; format: cell-based; conditions: radial diffusion
RAW 264.7 cells = assay: LPS neutralization cellular proliferation assay, RAW 264.7 cells; format: cell-based, mouse
Summary of the method: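 Mouse RAW 264.7 cells were primed 24 h with 50U/mL mouse γ-interferon, then exposed about 15 h to E. coli O113 LPS in serum-free RPMI with or without BPI peptides at 25 ng/mL–50 μg/mL. Proliferation was quantified by [^3H]-thymidine uptake, 1 μCi/well, added at 5 h.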

Molecule	pmol added to well to achieve a 30 mm^2 bactericidal zone, E. coli J5 [1]	Heparin Capacity [2] [ng]	Kd [2] [nM]	LAL (relative difference) (E. coli 0113 LPS)	pmol added to well to achieve a 30 mm^2 bactericidal zone, E. coli O111:B4 [3]	further results
IKISGKWAAQKRFLK [BPI.22]	2,546.80 pmol	135.7	315	= (no difference in the LAL assay)	b (no detectable activity up to 5 μg/well)	RDA (x Fold change in activity) ([1]; alanine variant relative to BPI.2): =1.0 x Fold
IKISGKWKAQKAFLK [BPI.25]	8,203.50 pmol	107.2	346	= (no difference in the LAL assay)	b (no detectable activity up to 5 μg/well)	heparin binding capacity, fold lower than the unsubstituted peptide [2]: ~2 fold; HEPKd (x Fold change in activity) ([2]; heparin binding affinity, relative to BPI.2): =1.0 x Fold
KSKVGWLIQLWHKK [BPI.82]	171.32 pmol	163.1	427		3,681.30 pmol	MIC C. alb (Candida albicans): 3.13 µg/mL; pmol added to well to achieve a 30 mm^2 bactericidal zone, S. aureus (Staphylococcus aureus): 11,027.00 pmol; C. albicans: pmol required for 30 mm^2 zone (C. albicans): 518.43 pmol; EC50 (peptide concentration at which the growth inhibitory effect of LPS was reversed by 50%) (RAW 264.7 cells): 0.8 ± 0.1 µg/mL; IC50 (peptide concentration at which RAW cell growth was inhibited by 50%) (RAW 264.7 cells): 18.8 ± 0.8 µg/mL
CC[C@H](C)[C@H](NC(=O)[C@H](CC(C)C)NC(=O)[C@H](Cc1cccc2ccccc12)NC(=O)CNC(=O)[C@@H](NC(=O)[C@H](CCCCN)NC(=O)[C@H](CO)NC(=O)[C@@H](N)CCCCN)C(C)C)C(=O)N[C@@H](CCC(N)=O)C(=O)N[C@@H](CC(C)C)C(=O)N[C@@H](Cc1ccccc1)C(=O)N[C@@H](Cc1c[nH]cn1)C(=O)N[C@@H](CCCCN)C(=O)N[C@@H](CCCCN)C(=O)O [BPI.83] (H-KSKVG[1Nal]LIQLFHKK-OH)	164.84 pmol	253.3	410		51,147.55 pmol	pmol added to well to achieve a 30 mm^2 bactericidal zone, S. aureus (Staphylococcus aureus): 116,500.54 pmol; C. albicans: pmol required for 30 mm^2 zone (C. albicans): 1804.26 pmol; EC50 (peptide concentration at which the growth inhibitory effect of LPS was reversed by 50%) (RAW 264.7 cells): 1.2 ± 0.1 µg/mL
KSKVGWLILLFHKK [BPI.86]	1,519.64 pmol	208.4	383		b (no detectable activity up to 5 μg/well)	pmol added to well to achieve a 30 mm^2 bactericidal zone, S. aureus (Staphylococcus aureus): 459,138.55 pmol; C. albicans: pmol required for 30 mm^2 zone (C. albicans): >2048.45 pmol; EC50 (peptide concentration at which the growth inhibitory effect of LPS was reversed by 50%) (RAW 264.7 cells): 0.13 ± 0.04 µg/mL
IKISGKAKAQKRFLK [BPI.21]	27,647.60 pmol	50.9	231		b (no detectable activity up to 5 μg/well)	fold reduction in bactericidal activity in the radial diffusion assay ([1]; alanine variant vs unsubstituted peptide): more than 10 fold; heparin binding capacity, fold lower than the unsubstituted peptide [2]: 4 fold; LAL / LPS inhibition activity (in words) (E. coli 0113 LPS): large decrease in activity
KSKVGWLIQLFHKF [BPI.96]	378.33 pmol	203.8	469		8,691.85 pmol	pmol added to well to achieve a 30 mm^2 bactericidal zone, S. aureus (Staphylococcus aureus): 91,585.37 pmol; C. albicans: pmol required for 30 mm^2 zone (C. albicans): 1856.08 pmol; EC50 (peptide concentration at which the growth inhibitory effect of LPS was reversed by 50%) (RAW 264.7 cells): 1.6 ± 0.2 µg/mL; IC50 (peptide concentration at which RAW cell growth was inhibited by 50%) (RAW 264.7 cells): 18.8 ± 0.8 µg/mL
A1: Asp-N fragment of rBPI23, region 1-38 as printed in Table II (A1 A2 in Table I) (VNPGVVVRISQKGLDYASQQGTAALQKELKRIKIPDYS; Asp-N fragment; UniProt P17213 32-69, looked up, fragment)						cpm ^3H-Heparin bound [2]: 17,002 ± 479 cpm; amount required to inhibit the LAL assay, fold higher than 116-193 fragment / rBPI23 (E. coli 0113 LPS): 10 fold
IAISGKWKAQKRFLK [BPI.16]	7,550.90 pmol	127.25	231	= (no difference in the LAL assay)	b (no detectable activity up to 5 μg/well)	
IKASGKWKAQKRFLK [BPI.17]	15,836.70 pmol	113.1	266	↓ (moderate)	b (no detectable activity up to 5 μg/well)	LAL / LPS inhibition activity (in words) (E. coli 0113 LPS): moderate
A4: Asp-N fragment of rBPI23, residues 57-104 (DIREFQLPSSQISMVPNVGLKFSISNANIKISGKWKAQKRFLKMSGNF; UniProt P17213 88-135, looked up, fragment)						cpm ^3H-Heparin bound [2]: 33,159 ± 1.095 cpm; amount required to inhibit the LAL assay, fold higher than 116-193 fragment / rBPI23 (E. coli 0113 LPS): 10 fold
IKIAGKWKAQKRFLK [BPI.18]	7,128.50 pmol	156.6	381	= (no difference in the LAL assay)	b (no detectable activity up to 5 μg/well)	
IKISGKWKAQKRFLA [BPI.28]	6,194.40 pmol	156.6	266	= (no difference in the LAL assay)	b (no detectable activity up to 5 μg/well)	
IKISGAWKAQKRFLK [BPI.20]	3,451.40 pmol	203.6	485	= (no difference in the LAL assay)	b (no detectable activity up to 5 μg/well)	HEPCAP (x Fold change in activity) ([2]; heparin binding capacity, relative to BPI.2): =1.0 x Fold
KSKVGWLIQLFHKKKWKAQKRFLK [BPI.74]	731.94 pmol	207.3	218		30,610.36 pmol	fold lower bactericidal activity than BPI.30 ([1]; E. coli J5): 10 fold; fold lower bactericidal activity than BPI.30 (Staphylococcus aureus): 3.5 fold; pmol added to well to achieve a 30 mm^2 bactericidal zone, S. aureus (Staphylococcus aureus): 4,290.18 pmol; fold increase in heparin affinity vs BPI.30 [2]: 2 fold; fold reduction in heparin binding capacity vs BPI.30 [2]: 2 fold; C. albicans: pmol required for 30 mm^2 zone (C. albicans): >2148.21 pmol; EC50 (peptide concentration at which the growth inhibitory effect of LPS was reversed by 50%) (RAW 264.7 cells): 2.7 ± 0.3 µg/mL; IC50 (peptide concentration at which RAW cell growth was inhibited by 50%) (RAW 264.7 cells): 18.8 ± 0.8 µg/mL; fold lower bactericidal activity than BPI.30 ([3]; E. coli 0111:B4): 50 fold
B1						cpm ^3H-Heparin bound [2]: 13,419 ± 309 cpm; LAL / LPS inhibition activity (in words) (E. coli 0113 LPS): LAL inhibitory activity similar to intact rBPI23; concentration giving complete inhibition of the LPS-induced LAL reaction (E. coli 0113 LPS): 15 nM
B2						cpm ^3H-Heparin bound [2]: 82,918 ± 4,462 cpm; IC50 relative to intact rBPI23 (fold higher) (E. coli 0113 LPS): approximately 10 fold; IC50 (E. coli 0113 LPS; read-out: IC50 of inhibition of the LPS-induced LAL reaction): ~100 nM
